{
  "source": "patent US20210284691A1",
  "about": "“CBX8 CHROMDOMAIN INHIBITORS AND THE USES THEREOF” (Purdue Research Foundation, priority 2019, published 2021)",
  "key": {"THP1 cells": {"tested_on": "THP1 cells", "details": "50 μM", "protocol": "Cells were grown for 72 h before trypsinized and counted. Cell suspension was homogenized by gentle pipetting and counted using Countess II (#AMQAF1000, Life Technologies). […] At day 6, 25 percent of cells in each well were split and transferred to new wells to avoid over-confluency, and media was replaced with fresh compounds in new media. The cell viability assay was extended to 12 days, with cell counting and fresh compound replenishment at day 3, 6, 9.\nLuminescence was normalized to DMSO-treated groups. The IC50 was calculated using the “log[inhibitor] vs. the normalized response-variable slope” equation in GraphPad Prism 7."}, "CBX8 regulated gene": {"tested_on": "CBX8 regulated gene", "experiment": "Gene expression of a CBX8 regulated gene in HEK293T cells", "format": "cell-based, Human", "details": "high compound concentrations"}, "[1]": {"target": "T1, CBX8 binding to chromatin (Homo sapiens, UniProt Q9HC52)", "T1 construct": "endogenous in cells; host or cells: Hs68 fibroblasts (A16); HEK293T (A19); K562 (A23)", "T1 sequence (Q9HC52 1-389)": "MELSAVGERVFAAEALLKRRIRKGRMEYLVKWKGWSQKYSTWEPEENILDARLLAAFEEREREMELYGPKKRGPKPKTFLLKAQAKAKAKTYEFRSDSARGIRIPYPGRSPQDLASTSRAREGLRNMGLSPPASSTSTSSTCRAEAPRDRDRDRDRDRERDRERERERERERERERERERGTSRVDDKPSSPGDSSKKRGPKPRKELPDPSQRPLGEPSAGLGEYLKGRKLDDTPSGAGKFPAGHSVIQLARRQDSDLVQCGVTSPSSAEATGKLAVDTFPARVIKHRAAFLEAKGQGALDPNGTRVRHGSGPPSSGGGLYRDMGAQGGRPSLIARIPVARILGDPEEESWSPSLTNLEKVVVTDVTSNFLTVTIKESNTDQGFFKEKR", "experiment": "ChIP-qPCR in Hs68 fibroblast cells", "format": "cell-based", "details": "120 μM", "method": "ChIP: Hs68 cells were seeded at 4×10^6 in a 10 cm cell culture plates 16 hours prior to treatment. […] ChIP was performed as described in Connelly et al., 2018. Birefly, cells were washed with PBS and fixed on the plate with CiA Fix buffer (50 mM HEPES, pH 8.0, 1 mM EDTA, 0.5 mM ETGA, 100 mM NaCl) and 1% formaldehyde for 10 min at room temperature. Crosslinking was quenched with 0.125 M glycine for 5 min at 4° C. Cells were washed once with PBS and lifted off the plate then resuspended in CiA NP Rinse buffer 1 (50 mM HEPES pH 8.0, 140 mM NaCl, 1 mM EDTA, 10% glycerol, 0.5% NP-40, 0.25% Triton X) for 10 min. Cells were pelleted at 1200×g for 5 min at 4° C. The supernatant was removed, and the cells were resuspended in CiA NP rinse buffer 2 (10 mM Tris pH 8.0, 1 mM EDTA, 0.5 mM EGTA, 200 mM NaCl). Cells were collected by centrifugation, 1200×g for 5 min. Supernatant was removed and the cells were washed twice with shearing buffer (0.1% SDS, 1 mM EDTA, 10 mM Tris HCl, pH 8.0). Cells were resuspended in shearing buffer and sonicated for 7 min with the probe (Branson). Lysate was centrifuged at 21,000×g for 15 min to remove debris. Supernatant was collected and pre-cleared overnight with Protein A/G magnetic beads (Pierce). […]\nqPCR: qPCR was performed on the isolated ChIP DNA using SYBR master mix (Thermo) and run on the BioRad CFX thermo cycler. […] Enrichment was determined by percent input. […]"}, "CBX8 ChD": {"target": "T2, CBX8 ChD (Homo sapiens, UniProt Q9HC52)", "T2 construct": "CBX chromodomain constructs; host or cells: E. coli BL21 CodonPlus RIL", "T2 sequence (Q9HC52 11-69 limits assumed)": "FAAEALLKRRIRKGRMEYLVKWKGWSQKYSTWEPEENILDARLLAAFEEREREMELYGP", "experiment": "Direct fluorescence polarization (FP) binding assay", "details": "from Kd values", "method": "Bacterial growth was completed at 37° C. in LB media to OD600=2.0, followed by reducing the temperature to 16° C. over 30-60 min and induced with 1 mM IPTG for 16 h. Cells were collected by centrifugation at 6000 rpm for 20 min and resuspended in ChD binding buffer (20 mM Tris, pH 8, 150 mM NaCl, 0.01% Tween-20, 20 mM imidazole) with 1.0 mM PMSF. Bacteria pellets were stored at −80° C. until needed. Pellets were thawed on ice for 10 min in ChD binding buffer, and shaked at 4° C. supplemented with 100 μg/mL lysozyme, 1 mg/mL CHAPS and 1 mM PMSF, for 30 min. Cells were subsequently lysed by sonication (15 W, 30 s on, followed by 30 s off, twice, followed by 20 W for 1 min). The solubilized fraction was collected by centrifugation at 15000 rpm for 40 min at 4° C. Meanwhile, Ni-NTA Agarose resin (QIAGEN, Venlo, Netherlands) was washed with H2O and equilibrated with ChD binding buffer. The soluble fraction was incubated with the prewashed Ni-NTA agarose resin at 4° C. for 2 h. The resin was then washed 3× with ChD purification buffer (20 mM Tris, pH 8, 150 mM NaCl, 0.01% Tween-20, 1 mM PMSF). Proteins were eluted by the addition of 0.5 M imidazole to ChD purification buffer. The elution was diluted with 30% glycerol, flash frozen, and stored at −80° C. until needed. Protein purity was assessed by SDS-PAGE and concentration was determined by the Pierce 660 kit (Thermo Scientific).\nDirect fluorescence polarization (FP) binding assay of PSL hits against PcG CBX ChDs. FP assays were conducted as above with slight modifications. Alkyne peptides described above were conjugated with a fluorescein group(5-/6-FAM) through copper catalyzed click reaction as previously described. The FAM-labeled peptide was kept constant at 100 nM. The CBX ChD proteins were titrated by 2-fold series dilutions in the assays. The highest protein concentrations, at which FAM-peptide was completely bound, used for each CBX in the direct binding assays depends on the binding affinity of the peptides. Assays were performed for each peptide in four replicates."}, "endogenous CBX proteins": {"tested_on": "endogenous CBX proteins", "experiment": "Peptide pull-down / chemoprecipitation from HEK293T lysates", "format": "binding, Human", "method": "2×10^7 HEK293T cells were seeded in a 15 cm cell culture dish overnight. Next day, media was removed and cells were washed with PBS. Cells were lysed with 5 ml Buffer A (25 mM HEPES, 5 mM KCl, 25 mM MgCl2, 0.05 mM EDTA, 10% glycerol, 0.1% NP-40, plus protease inhibitors) on ice for 15 minutes. The nuclei were pelleted and re-suspended in IP buffer (25 mM Tris, 300 mM NaCl, 1 mM EDTA, 1% NP-40, plus protease inhibitors) for 15 minutes. The sample were spun down at 15,000 rpm at 4° C. for 5 min and lysates were transferred to separate tubes. Protein concentrations were determined by Pierce 660 nm kit (Thermo Scientific). Streptavidin M-270 Dynabeads (Solulink, San Diego, Calif.) was washed three times with Pulldown Binding Buffer (50 mM Tris, 150 mM NaCl, 0.5 mM DTT). 10× of biotinylated peptides SW2_110A-B, as well as biotinylated H3K27me3 (21-44) and biotinylated H3 (21-44), were incubated with […] pre-equilibriumed beads at 4° C. for an hour. After biotin-peptide being immobilized on resin, extra unbound peptides were removed by 3× washing, and 200 μg of nuclear lysate supernatant was added to each washed and immobilized biotinylated peptide (biotin-H3, biotin-H3K27me3, SW2_110A-B). The mixture was rotated at 4° C. for 2 hours. Then, the depleted lysate was removed and the beads were washed with Pulldown Binding Buffer 3× at 4° C. […] ImageJ was employed to quantitate the protein bands."}, "LNCaP_NED cells": {"tested_on": "LNCaP_NED cells", "experiment": "LNCaP_NED cell proliferation, viability and morphology", "format": "cell-based", "details": "enzalutamide treatment", "description": "FIG. 12A). Neuroendocrine differentiation (NED) of prostate cancer induced by androgen deprivation. Representative pictures of LNCaP cells treated with normal media or charcoal-stripped serum (CSS) media for 6 days to induce neuroendocrine differentiation (LNCaP_NED). FIG. 12B). Transcriptional fold changes of KLK3/TMPRSS2/ENO2/CHGA were quantified normalized to control gene YWHAZ upon CSS media treatment for 6 or 9 days. FIG. 12C). Western blotting of CBX paralogs in LNCaP and LNCaP_NED cells generated from 14-day CSS treatment. FIG. 12D). Cell proliferation of LNCaP_NED following 5 days incubation with 2 or 10 μM SW2_152F. DMSO was used as negative control. FIG. 12E). LNCaP_NED cells were treated with 10 μM SW2_152F for 24 h-96 h. Cell morphology pictures were captured starting from 24 h. Average cell size were plotted at 24 h or 48 h for both DMSO group and compound treated group. FIG. 12F). LNCaP_NED cells were treated with 10 μM or 50 μM SW2_152F for 48 hours. Transcriptional fold change of genes (KLK3/TMPRSS2/AR/CBX2) were normalized to YWHAZ in LNCaP_NED cells with SW2_152F treatment or DMSO. FIG. 12G). LNCaP cells were treated with DMSO. LNCaP_NED cells were treated with DMSO, 10 μM GSK343 or 10 μM SW2_152F for 48 hours. Whole cell lysates were extracted for western blotting. FIG. 12H). LNCaP_NED cells were treated with DMSO or 10 μM SW2_152F for 4 hours before harvest. Binding of H3K27me3 and CBX2 at specific genomic sites (KLK3/TMPRSS2, e: enhancer, p: promoter) were evaluated using chromatin immunoprecipitation-qPCR. For all experiments in the figure, error bars represent SEM n=3 biological replicates, p-values were calculated using two-tailed Student's t-test, *=p<0.05, **=p<0.01, ***=p<0.001, ****=p<0.0001.\nCellular Activity of CBX2 Inhibitor in Neuroendocrine Differentiation of Prostate Cancer—Generation of a Prostate Cancer Neuroendocrine Differentiation (NED) System. To generate an in vitro model for NED, we cultured the androgen-sensitive prostate cancer cell line LNCaP in charcoal-stripped serum (CSS), which lacks androgens as well as other steroids. Upon treatment with CSS media, LNCaP cells adopted morphological characteristics of neuroendocrine-like cells (LNCaP_NED), which include dominant nucleus, limited cytoplasm, dendrites (FIG. 12A) and a decreased proliferation rate. To monitor transcriptional changes during androgen deprivation, we quantified the changes in expression of two NED markers (ENO2 and CHGA) and two AR target genes (KLK3 and TMPRSS2) by RT-qPCR during 15 days of androgen deprivation. […] To verify that LNCaP_NED cells become resistant to AR antagonists, we tested the effects of the AR antagonist enzalutamide (ENZA) on cell proliferation."}, "LNCaP cells": {"tested_on": "LNCaP cells", "experiment": "LNCaP cell proliferation", "format": "cell-based", "details": "ENZA treatment", "quoted_text": "To generate an in vitro model for NED, we cultured the androgen-sensitive prostate cancer cell line LNCaP in charcoal-stripped serum (CSS), which lacks androgens as well as other steroids. […] To verify that LNCaP_NED cells become resistant to AR antagonists, we tested the effects of the AR antagonist enzalutamide (ENZA) on cell proliferation."}},
  "note": "Square brackets hold non-standard residues; d marks the D form. Primed or numbered codes have the meaning given here. Ends that are not written are not given here. Peptide text beside a SMILES is read from it. * marks the point of attachment. Isoxazole3carbonyl(5-Me) = Cc1cc(C(=O)*)no1; Tyr(3-Cl) = N[C@@H](Cc1ccc(O)c(Cl)c1)C(=O)O; Lys(Et2) = CCN(CC)CCCC[C@H](N)C(=O)O; PEG4′ = not defined here; NH(propargyl) = C#CCN*",
  "data": [
    {"compound": "C#CCNC(=O)[C@H](CO)NC(=O)[C@H](CCCCN(CC)CC)NC(=O)[C@@H](NC(=O)[C@@H](NC(=O)[C@H](Cc1ccc(O)c(Cl)c1)NC(=O)c1cc(C)on1)C(C)C)[C@@H](C)CC", "note": "[KED97L] ({Isoxazole3carbonyl(5-Me)}-[Tyr(3-Cl)]VI[Lys(Et2)]S-{NH(propargyl)}; C-terminus assumed)", "values": [
      {"measurement": "THP1 cell viability", "setting": "THP1 cells", "result": "only slightly affected"},
      {"measurement": "gene expression changes of a CBX8 regulated gene", "setting": "CBX8 regulated gene", "result": "only slightly affected"},
      {"measurement": "CBX8 binding at a known target, ChIP-qPCR", "setting": "[1]", "result": "completely unaffected"},
      {"measurement": "selectivity for CBX8 ChD over CBX7 ChD", "setting": "CBX8 ChD", "result": 20, "unit": "fold"}
    ]},
    {"compound": "SW2_152F-B: biotinylated SW2_152F (SEQ ID NO: 29) (PIKS-{PEG4′-biotin}; also: Pro1 alpha-amino modified, Lys3 side chain amino modified)", "values": [
      {"measurement": "enrichment of endogenous CBX proteins by biotinylated ligand, immunoblot", "setting": "endogenous CBX proteins", "result": "robustly enriched CBX2 and CBX8 with limited enrichment of other paralogs"}
    ]},
    {"compound": "CNC(=O)c1ccc(N2C(=S)N(c3ccc(C#N)c(C(F)(F)F)c3)C(=O)C2(C)C)cc1F", "note": "[enzalutamide, reference compound]", "values": [
      {"measurement": "LNCaP_NED proliferation with AR antagonist", "setting": "LNCaP_NED cells", "result": "no further decrease in proliferation"},
      {"measurement": "LNCaP proliferation with AR antagonist", "setting": "LNCaP cells", "result": "highly decreased proliferation"}
    ]}
  ]
}
